Test results published in US20240343733A1, “COMPOUNDS FOR TARGETING DEGRADATION OF IRAK4 PROTEINS” (BIOGEN MA INC., priority 2021, published 2024).

Key:
IKZF1 = molecular target: T1, IKZF1 (Homo sapiens, UniProt Q13422); test: IKZF1 Degradation Assay, HiBiT Method; type: cell-based; conditions: NCIH929 cells expressing HiBiT-tagged IKZF1, 6 hours, top concentration 10 μM
T1 construct: endogenously expressing IKZF1 with HiBiT fusion tag via CRISPR
Experimental: Assay 2. IKZF1 Degradation Assay, HiBiT Method
Selected compounds of this disclosure were tested in an IKZF1 degradation assay using the HiBiT Method.
RPMI no-phenol red medium and fetal bovine serum (FBS) were purchased from Gibco (Grand Island, NY, USA). Nano-Glo® HiBiT Lytic Assay System was purchased from Promega (Madison, WI, USA). […] Cell culture flasks and 384-well microplates were acquired from VWR (Radnor, PA, USA).
IKZF1 degradation was determined based on quantification of luminescent signal using Nano-Glo® HiBiT Lytic Assay kit. […] NCIH929 cells expressing HiBiT-tagged IKZF1 were added into 384-well plates in RPMI medium containing 10% FBS and 0.05 mM 2-mercaptoethanol at a cell density of 15000 cells per well. The plates were kept at 37° C. with 5% CO2 for 6 hours. Cells treated in the absence of the test compound were the negative control and wells containing media only were the positive control. After 6-hour incubation, Nano-Glo® HiBiT Lytic Assay reagents were added to the designated wells. Luminescence was acquired on EnVision® Multilabel Reader (PerkinElmer, Santa Clara, CA, USA).

IRAK4 = molecular target: T2, IRAK4 (Homo sapiens, UniProt Q9NWZ3); test: IRAK4 Degradation Assay, HiBiT Method; type: cell-based; conditions: 293T cells expressing HiBiT-tagged IRAK4, 6 hours
T2 construct: 293Tcells expressing HiBiT-tagged IRAK4 were then added into 384-well plates
T2 sequence (Q9NWZ3 1-460): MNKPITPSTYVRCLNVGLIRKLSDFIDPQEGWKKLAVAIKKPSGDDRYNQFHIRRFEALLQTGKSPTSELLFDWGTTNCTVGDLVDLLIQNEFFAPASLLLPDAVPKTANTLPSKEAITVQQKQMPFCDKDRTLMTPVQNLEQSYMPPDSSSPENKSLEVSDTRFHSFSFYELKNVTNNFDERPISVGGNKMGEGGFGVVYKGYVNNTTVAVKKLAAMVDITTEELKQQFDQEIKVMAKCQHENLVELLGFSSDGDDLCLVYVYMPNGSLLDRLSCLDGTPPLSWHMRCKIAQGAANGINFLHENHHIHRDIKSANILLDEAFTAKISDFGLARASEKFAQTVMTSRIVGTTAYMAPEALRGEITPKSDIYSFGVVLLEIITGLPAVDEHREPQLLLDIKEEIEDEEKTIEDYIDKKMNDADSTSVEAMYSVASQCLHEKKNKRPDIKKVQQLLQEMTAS
Procedure, shortened: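 Luminescent read-out with Nano-Glo HiBiT lytic reagent after 6 h compound exposure at 37 °C. Cells were HiBiT-IRAK4 knock-in 293T (C-terminal tag), 10,000 per well. Compounds ran as 11-point half-log dilutions from […] highest dose, duplicate wells; DMSO served as negative control.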

T1 sequence (Q96SW2 whole entry partner, the tested form may be a part): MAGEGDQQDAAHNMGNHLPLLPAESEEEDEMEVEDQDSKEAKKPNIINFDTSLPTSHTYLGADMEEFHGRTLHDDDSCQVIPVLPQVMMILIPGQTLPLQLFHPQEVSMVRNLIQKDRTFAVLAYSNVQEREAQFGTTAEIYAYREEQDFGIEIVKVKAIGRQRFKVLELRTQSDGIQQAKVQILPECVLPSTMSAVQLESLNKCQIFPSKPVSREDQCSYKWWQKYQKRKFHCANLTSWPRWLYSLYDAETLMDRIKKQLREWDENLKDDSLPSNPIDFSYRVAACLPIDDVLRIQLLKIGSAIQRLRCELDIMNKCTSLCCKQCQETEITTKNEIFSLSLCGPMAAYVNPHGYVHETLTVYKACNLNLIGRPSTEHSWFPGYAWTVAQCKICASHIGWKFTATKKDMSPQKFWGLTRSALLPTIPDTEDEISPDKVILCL
T1 sequence (Q16531 whole entry partner, the tested form may be a part): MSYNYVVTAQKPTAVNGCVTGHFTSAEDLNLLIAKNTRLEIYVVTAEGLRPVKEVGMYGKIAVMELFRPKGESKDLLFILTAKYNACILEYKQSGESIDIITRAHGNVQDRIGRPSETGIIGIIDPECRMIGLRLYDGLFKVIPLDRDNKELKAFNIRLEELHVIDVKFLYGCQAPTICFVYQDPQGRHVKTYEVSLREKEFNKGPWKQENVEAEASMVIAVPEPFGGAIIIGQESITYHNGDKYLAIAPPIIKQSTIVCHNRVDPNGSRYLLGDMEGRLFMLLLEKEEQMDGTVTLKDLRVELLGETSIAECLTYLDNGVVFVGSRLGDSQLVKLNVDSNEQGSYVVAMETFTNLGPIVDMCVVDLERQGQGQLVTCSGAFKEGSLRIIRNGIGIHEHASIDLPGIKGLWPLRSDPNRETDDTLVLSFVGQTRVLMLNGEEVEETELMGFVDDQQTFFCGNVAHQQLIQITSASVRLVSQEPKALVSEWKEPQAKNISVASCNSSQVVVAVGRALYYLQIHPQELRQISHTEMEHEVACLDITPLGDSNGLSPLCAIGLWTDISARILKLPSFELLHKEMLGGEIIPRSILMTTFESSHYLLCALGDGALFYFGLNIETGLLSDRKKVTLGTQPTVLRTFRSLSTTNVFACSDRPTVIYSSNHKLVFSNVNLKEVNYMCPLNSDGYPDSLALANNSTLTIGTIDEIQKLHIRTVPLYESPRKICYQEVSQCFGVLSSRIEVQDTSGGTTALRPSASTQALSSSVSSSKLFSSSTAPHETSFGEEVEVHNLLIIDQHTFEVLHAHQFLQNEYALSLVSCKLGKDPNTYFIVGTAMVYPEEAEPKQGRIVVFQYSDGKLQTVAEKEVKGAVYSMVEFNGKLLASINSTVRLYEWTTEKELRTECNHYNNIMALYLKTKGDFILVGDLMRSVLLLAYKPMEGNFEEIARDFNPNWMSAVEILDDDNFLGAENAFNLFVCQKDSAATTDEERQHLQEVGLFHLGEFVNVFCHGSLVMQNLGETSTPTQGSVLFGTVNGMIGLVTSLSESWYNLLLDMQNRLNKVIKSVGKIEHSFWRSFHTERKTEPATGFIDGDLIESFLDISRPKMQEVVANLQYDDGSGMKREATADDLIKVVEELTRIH
T1 sequence (Q13422 whole entry, the tested form may be a part): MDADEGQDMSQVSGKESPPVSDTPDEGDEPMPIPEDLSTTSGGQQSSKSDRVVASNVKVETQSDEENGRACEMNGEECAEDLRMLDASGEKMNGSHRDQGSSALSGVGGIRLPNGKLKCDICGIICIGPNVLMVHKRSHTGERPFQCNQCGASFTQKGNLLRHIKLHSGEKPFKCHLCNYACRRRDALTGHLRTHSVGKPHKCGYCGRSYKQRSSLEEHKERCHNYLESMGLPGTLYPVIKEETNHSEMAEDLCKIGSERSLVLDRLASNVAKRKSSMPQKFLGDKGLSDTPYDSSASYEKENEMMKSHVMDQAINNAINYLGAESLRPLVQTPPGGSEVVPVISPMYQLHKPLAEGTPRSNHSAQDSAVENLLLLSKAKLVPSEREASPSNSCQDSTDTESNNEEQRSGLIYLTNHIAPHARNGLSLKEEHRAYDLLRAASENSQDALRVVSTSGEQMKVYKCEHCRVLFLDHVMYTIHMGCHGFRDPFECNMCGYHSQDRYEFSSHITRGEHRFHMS

Compound: CC(C)Oc1cc2nc(C3CCN(CC(=O)N4CCC(c5ccc(C6(F)CCC(=O)NC6=O)cc5)CC4)CC3)cn2cc1C(=O)Nc1cnn2cccnc12 (stereo not drawn) [Example 98, 2-[1-[2-[4-[4-(3-fluoro-2,6-dioxo-3-piperidyl)phenyl]-1-piperidyl]-2-oxo-ethyl]-4-piperidyl]-7-isopropoxy-N-pyrazolo[1,5-a]pyrimidin-3-yl-imidazo[1,2-a]pyridine-6-carboxamide]
- DC50 (IKZF1): > 10 µM
- DC50 (IRAK4): 10 to 100 nM

Compound: CC(C)Oc1cc2nc(C3CCN(CC(=O)N4CCC(c5ccc(NC6CCC(=O)NC6=O)cc5)CC4)CC3)cn2cc1C(=O)Nc1cnn2cccnc12 (stereo not drawn) [Example 104, 2-[1-[2-[4-[4-[(2,6-dioxo-3-piperidyl)amino]phenyl]-1-piperidyl]-2-oxo-ethyl]-4-piperidyl]-7-isopropoxy-N-pyrazolo[1,5-a]pyrimidin-3-yl-imidazo[1,2-a]pyridine-6-carboxamide]
- DC50 (IKZF1): > 10 µM
- DC50 (IRAK4): < 10 nM

Compound: CC(C)Oc1cc2nc(C3CCN(CC(=O)N4CCC(c5ccc(NC6CCC(=O)NC6=O)cc5)CC4)CC3)cn2cc1C(=O)Nc1cccc(C(F)F)n1 (stereo not drawn) [Example 105, N-[6-(difluoromethyl)-2-pyridyl]-2-[1-[2-[4-[4-[(2,6-dioxo-3-piperidyl)amino]phenyl]-1-piperidyl]-2-oxo-ethyl]-4-piperidyl]-7-isopropoxy-imidazo[1,2-a]pyridine-6-carboxamide]
- DC50 (IKZF1): > 10 µM
- DC50 (IRAK4): 10 to 100 nM

Compound: CC(C)Oc1cc2nc(C3CCN(CC(=O)N4CCC(c5ccc(NC6CCC(=O)NC6=O)cc5)CC4)CC3)cn2cc1C(=O)Nc1ccn(C)n1 (stereo not drawn) [Example 108, 2-[1-[2-[4-[4-[(2,6-dioxo-3-piperidyl)amino]phenyl]-1-piperidyl]-2-oxo-ethyl]-4-piperidyl]-7-isopropoxy-N-(1-methylpyrazol-3-yl)imidazo[1,2-a]pyridine-6-carboxamide]
- DC50 (IKZF1): > 10 µM
- DC50 (IRAK4): 10 to 100 nM

Compound: CC(C)Oc1cc2nn([C@H]3CC[C@H](CN4CCC(c5ccc(OC6CCC(=O)NC6=O)cc5)CC4)CC3)cc2cc1C(=O)Nc1cccn(C2CC2)c1=O (stereo partly drawn) [Example 113, N-(1-cyclopropyl-2-oxo-1,2-dihydropyridin-3-yl)-2-((1r,4r)-4-((4-(4-((2,6-dioxopiperidin-3-yl)oxy)phenyl)piperidin-1-yl)methyl)cyclohexyl)-6-isopropoxy-2H-indazole-5-carboxamide]
- DC50 (IKZF1): > 10 µM
- DC50 (IRAK4): < 10 nM

Compound: Cc1cnc2c(NC(=O)c3cc4cn([C@H]5CC[C@H](CN6CCC(c7ccc(C8CCC(=O)NC8=O)cc7F)CC6)CC5)nc4cc3OC(C)C)cnn2c1 (stereo partly drawn) [Example 114, 2-((1r,4r)-4-((4-(4-(2,6-dioxopiperidin-3-yl)-2-fluorophenyl)piperidin-1-yl)methyl)cyclohexyl)-6-isopropoxy-N-(6-methylpyrazolo[1,5-a]pyrimidin-3-yl)-2H-indazole-5-carboxamide]
- DC50 (IKZF1): > 10 µM
- DC50 (IRAK4): 10 to 100 nM

Compound: CC(C)Oc1cc2nn([C@H]3CC[C@H](CN4CCC(c5ccc(OC6CCC(=O)NC6=O)cc5)CC4)CC3)cc2cc1C(=O)Nc1cnn2cccnc12 (stereo partly drawn) [Example 115, 2-((1r,4r)-4-((4-(4-((2,6-dioxopiperidin-3-yl)oxy)phenyl)piperidin-1-yl)methyl)cyclohexyl)-6-isopropoxy-N-(pyrazolo[1,5-a]pyrimidin-3-yl)-2H-indazole-5-carboxamide]
- DC50 (IKZF1): > 10 µM
- DC50 (IRAK4): < 10 nM

Compound: CC(C)Oc1cc2nn([C@H]3CC[C@H](CN4CCN(c5ccc(C6CCC(=O)NC6=O)cn5)CC(O)C4)CC3)cc2cc1C(=O)Nc1cccn([C@H]2C[C@H]2F)c1=O (stereo partly drawn) [Example 120, 2-((1r,4S)-4-((4-(5-(2,6-dioxopiperidin-3-yl)pyridin-2-yl)-6-hydroxy-1,4-diazepan-1-yl)methyl)cyclohexyl)-N-(1-((1S,2R)-2-fluorocyclopropyl)-2-oxo-1,2-dihydropyridin-3-yl)-6-isopropoxy-2H-indazole-5-carboxamide]
- DC50 (IKZF1): > 10 µM
- DC50 (IRAK4): < 10 nM

Compound: CC(C)Oc1cc2nn([C@H]3CC[C@H](CN4CC5(CCN(c6ncc(C7CCC(=O)NC7=O)cc6F)CC5)C4)CC3)cc2cc1C(=O)Nc1cccn([C@H]2C[C@H]2F)c1=O (stereo partly drawn) [Example 121, 2-((1r,4S)-4-((7-(5-(2,6-dioxopiperidin-3-yl)-3-fluoropyridin-2-yl)-2,7-diazaspiro[3.5]nonan-2-yl)methyl)cyclohexyl)-N-(1-((1S,2R)-2-fluorocyclopropyl)-2-oxo-1,2-dihydropyridin-3-yl)-6-isopropoxy-2H-indazole-5-carboxamide]
- DC50 (IKZF1): > 10 µM
- DC50 (IRAK4): < 10 nM

Compound: CC(C)Oc1cc2nn([C@H]3CC[C@H](CN4CCC(c5ccc6c(c5)n(C)c(=O)n6C5CCC(=O)NC5=O)C(F)(F)C4)CC3)cc2cc1C(=O)Nc1cccn([C@H]2C[C@H]2F)c1=O (stereo partly drawn) [Example 122, 2-((1r,4S)-4-((4-(1-(2,6-dioxopiperidin-3-yl)-3-methyl-2-oxo-2,3-dihydro-1H-benzo[d]imidazol-5-yl)-3,3-difluoropiperidin-1-yl)methyl)cyclohexyl)-N-(1-((1S,2R)-2-fluorocyclopropyl)-2-oxo-1,2-dihydropyridin-3-yl)-6-isopropoxy-2H-indazole-5-carboxamide]
- DC50 (IKZF1): > 10 µM
- DC50 (IRAK4): < 10 nM

Compound: CC(C)Oc1cc2nn([C@H]3CC[C@H](CN4CCC(c5ccc6c(c5)n(C)c(=O)n6C5CCC(=O)NC5=O)C(F)(F)C4)CC3)cc2cc1C(=O)Nc1cnn2cccnc12 (stereo partly drawn) [Example 123, 2-((1r,4r)-4-((4-(1-(2,6-dioxopiperidin-3-yl)-3-methyl-2-oxo-2,3-dihydro-1H-benzo[d]imidazol-5-yl)-3,3-difluoropiperidin-1-yl)methyl)cyclohexyl)-6-isopropoxy-N-(pyrazolo[1,5-a]pyrimidin-3-yl)-2H-indazole-5-carboxamide]
- DC50 (IKZF1): > 10 µM
- DC50 (IRAK4): < 10 nM

Compound: CC(C)Oc1cc2nn([C@H]3CC[C@H](CNC4CCN(c5ncc(C6CCC(=O)NC6=O)cc5F)CC4)CC3)cc2cc1C(=O)Nc1cccn(C2CC2)c1=O (stereo partly drawn) [Example 125, N-(1-cyclopropyl-2-oxo-1,2-dihydropyridin-3-yl)-2-((1r,4r)-4-(((1-(5-(2,6-dioxopiperidin-3-yl)-3-fluoropyridin-2-yl)piperidin-4-yl)amino)methyl)cyclohexyl)-6-isopropoxy-2H-indazole-5-carboxamide]
- DC50 (IKZF1): > 10 µM
- DC50 (IRAK4): < 10 nM

Compound: CC(C)Oc1cc2nn([C@H]3CC[C@H](CN4CCOC[C@H]4Cc4ccc(OC5CCC(=O)NC5=O)cc4)CC3)cc2cc1C(=O)Nc1cccn([C@H]2C[C@H]2F)c1=O (stereo partly drawn) [Example 128, 2-((1R,4S)-4-(((3R)-3-(4-((2,6-dioxopiperidin-3-yl)oxy)benzyl)morpholino)methyl)cyclohexyl)-N-(1-((1S,2R)-2-fluorocyclopropyl)-2-oxo-1,2-dihydropyridin-3-yl)-6-isopropoxy-2H-indazole-5-carboxamide]
- DC50 (IKZF1): > 10 µM
- DC50 (IRAK4): < 10 nM

Compound: CC(C)Oc1cc2nn([C@H]3CC[C@H](CN4CC[C@@H](c5ccc6c(C7CCC(=O)NC7=O)nn(C)c6c5)[C@H](O)C4)CC3)cc2cc1C(=O)Nc1cccn([C@H]2C[C@H]2F)c1=O (stereo partly drawn) [Example 129, 2-((1S,4S)-4-(((3S,4S)-4-(3-(2,6-dioxopiperidin-3-yl)-1-methyl-1H-indazol-6-yl)-3-hydroxypiperidin-1-yl)methyl)cyclohexyl)-N-(1-((1S,2R)-2-fluorocyclopropyl)-2-oxo-1,2-dihydropyridin-3-yl)-6-isopropoxy-2H-indazole-5-carboxamide]
- DC50 (IKZF1): > 10 µM
- DC50 (IRAK4): < 10 nM

Compound: CC(C)Oc1cc2nn(C3CCN(C(=O)CC4CCN(c5ccc(C6CCC(=O)NC6=O)cn5)CC4)CC3)cc2cc1C(=O)Nc1cnn2cccnc12 (stereo not drawn) [Example 147, 2-(1-(2-(1-(5-(2,6-dioxopiperidin-3-yl)pyridin-2-yl)piperidin-4-yl)acetyl)piperidin-4-yl)-6-isopropoxy-N-(pyrazolo[1,5-a]pyrimidin-3-yl)-2H-indazole-5-carboxamide]
- DC50 (IKZF1): > 10 µM
- DC50 (IRAK4): < 10 nM
